Results as given in patent US20230091966A1, “METHODS FOR THE TREATMENT OF CARDIOVASCULAR DISEASE WITH CYCLODEXTRINS” (Beren Therapeutics, P.B.C., priority 2020, published 2023).

Legend:
[1] = human subject, single-ascending IV doses 500-1,000 mg/kg every 4 weeks; plasma pre-dose vs post-dose; FIG. 3A
Method: A human subject was treated with 2-hydroxypropyl-beta-cyclodextrin with single-ascending doses administered intravenously every 4 weeks according to Table 1 below. For each dose, whole blood was collected pre-dose, post-dose (line flush), 1 hour post-dose, and 24 hours post-dose. Plasma was separated from the whole blood and subjected to a cholesterol crystal dissolution capacity (CCDC) assay using techniques similar to those described in the literature. The CCDC assay measures the ability of a sample to dissolve cholesterol crystals.

[2] = pre-dose blood plasma incubated ex vivo with the substance; FIG. 3B
Method: For each dose, whole blood was collected pre-dose, post-dose (line flush), 1 hour post-dose, and 24 hours post-dose. Plasma was separated from the whole blood and subjected to a cholesterol crystal dissolution capacity (CCDC) assay using techniques similar to those described in the literature. The CCDC assay measures the ability of a sample to dissolve cholesterol crystals. Blood plasma pre-dose was also incubated ex vivo with 2-hydroxypropyl-beta-cyclodextrin and the ability of the plasma to dissolve cholesterol crystals was measured.

[3] = test system: 24S-hydroxycholesterol and 27-hydroxycholesterol; settings: human subject, IV 500-1,000 mg/kg every 4 weeks; FIGS. 4A-4C
Method: A human subject was treated with 2-hydroxypropyl-beta-cyclodextrin with single-ascending doses administered intravenously every 4 weeks according to Table 1 below.
In this Example, a human subject was treated with 2-hydroxypropyl-beta-cyclodextrin as in Example 2, and plasma levels of 24S-hydroxycholesterol and 27-hydroxycholesterol were measured.

[4] = test system: ABCA1; settings: human subject, IV 500-1,000 mg/kg every 4 weeks; FIGS. 5A-5D
Method: (§1) A human subject was treated with 2-hydroxypropyl-beta-cyclodextrin with single-ascending doses administered intravenously every 4 weeks according to Table 1 below. In this Example, a human subject was treated with 2-hydroxypropyl-beta-cyclodextrin as in Example 2, and ABCA1 and ABCG1 mRNA levels were measured. […] ABCA1 and ABCG1 are major cellular transporters resulting in cholesterol efflux to […] or mature HDL particles. In cardiovascular disease, expression of ABC transporters correlates with plaque stability and morbidity.

[5] = test system: ABCG1; settings: human subject, IV 500-1,000 mg/kg every 4 weeks; FIGS. 5A-5D
Method: as §1

2-hydroxypropyl-beta-cyclodextrin
capability of blood plasma to dissolve cholesterol crystals (CCDC) [1]: increased capability of blood plasma to dissolve cholesterol crystals | capacity of plasma to dissolve cholesterol crystals (CCDC) [2]: increased capacity to dissolve cholesterol crystals | plasma level of 24S-hydroxycholesterol [3]: increased plasma levels | plasma level of 27-hydroxycholesterol [3]: increased plasma levels | total cholesterol levels [3]: remained stable | ABCA1 mRNA levels [4]: increased mRNA levels | ABCG1 mRNA levels [5]: increased mRNA levels
